The target in series [1] is Recombinant full length human OGA enzyme (Homo sapiens (Human), UniProt O60502). In words: OGA Enzyme Inhibition Biochemical Assay. The settings on record: 1 nM OGA, 100 μM 4-MUGlcNAc, pH 6.4. Summed up: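 Full-length recombinant human OGA with fluorogenic 4-MUGlcNAc in McIlvaine buffer pH 6.4, 0.01% BSA; 90 min at room temperature, glycine pH 10 quench, fluorescence Ex 355/Em 460 nm. 10-point, 4-fold dilution from 20 μM; 4-parameter variable-slope fit.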

Series [2] has as its target OGA (S400 O-GLCNAC), HEK-293T cells transfected with Tau-V5 (Homo sapiens (Human), UniProt O60502). In words: Cellular OGA-Tau MSD Assay. Format: cell-based. The method, boiled down:
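HEK-293T cells transfected with OGA and Tau-V5 plasmids were treated overnight at 37° C with a 10-point, 3-fold titration from 1 uM. Lysates went onto V5-antibody MSD plates to capture Tau, probed with a Tau O-GlcNAc antibody and read by electrochemiluminescence; IC50 from a 4-parameter fit.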

The next series deals with P-gp (MDR1). In words: MDR1-MDCK Efflux Ratio Assay. Format: in vitro ADME. The settings on record: dog, read-out: MDR1-MDCK Efflux Ratio (B-A/A-B). How it is done: MDR1-MDCK cell monolayers were grown to confluence on microporous polyester membranes in 96-well Corning insert plates. The permeability assay buffer was Hanks' Balanced Salt Solution containing 10 mM HEPES at pH of 7.4. Loperamide (1 μM) was used as a positive control P-gp substrate. Propranolol and Bestatin (1 μM) were used as high and low permeability comparators, respectively. Test compounds or positive control P-gp substrate/permeability comprators were added to respective apical and basolateral chambers for bidirectional assessment of permeability. Receiver buffer (transport buffer supplemented with 1% bovine serum albumin) was added to respective receiver chambers. MDR1-MDCK cells were incubated with test compounds at 37° C. with 5% CO2 for 2 hr. Samples were collected from the donor chamber at both 0 and 120 minutes, and from the receiver chamber at 120 minutes. Test and control compound concentrations were determined using LC-MS/MS analysis. Each determination was performed in triplicate. The apparent permeability (Papp), efflux ratio and mass balance (percent recovery) were calculated as follows: [formula] where: dCr/dt is the cumulative concentration in the receiver compartment versus time in μM s^−1 Vr is the volume of the receiver compartment in cm^3 Vd is the volume of the donor compartment in cm^3 A is the area of the insert (0.143 cm^2 for 96-well insert) CE is the estimated experimental concentration (Time=0) of the dosing solution Cr^final is the concentration of the receiver at the end of the incubation period Cd^final is the concentration of the donor at the end of the incubation period.

Series [3] is described as follows: Rat Liver Microsome Stability Assay. To be noted: rat liver microsomes, 1 uM compound. Format: in vitro ADME. For orientation: Liver microsomes are vesicles of endoplasmic reticulum, rich in cytochrome P450 enzymes.
Where [4] appears, read: MDCK-MDR1, pH 7.4, MDR1-MDCK cells, 2 hr, pH 7.4.
Where [5] appears, read: HEK-293T cells, Tau-S400-GlcNAc MSD readout.

Molecules are shown by their SMILES. Where two headings read alike, the source gives them in different places. Bounds are passed on as bounds.

Chain of OGA (S400 O-GLCNAC), HEK-293T cells transfected with Tau-V5 (O60502 whole entry): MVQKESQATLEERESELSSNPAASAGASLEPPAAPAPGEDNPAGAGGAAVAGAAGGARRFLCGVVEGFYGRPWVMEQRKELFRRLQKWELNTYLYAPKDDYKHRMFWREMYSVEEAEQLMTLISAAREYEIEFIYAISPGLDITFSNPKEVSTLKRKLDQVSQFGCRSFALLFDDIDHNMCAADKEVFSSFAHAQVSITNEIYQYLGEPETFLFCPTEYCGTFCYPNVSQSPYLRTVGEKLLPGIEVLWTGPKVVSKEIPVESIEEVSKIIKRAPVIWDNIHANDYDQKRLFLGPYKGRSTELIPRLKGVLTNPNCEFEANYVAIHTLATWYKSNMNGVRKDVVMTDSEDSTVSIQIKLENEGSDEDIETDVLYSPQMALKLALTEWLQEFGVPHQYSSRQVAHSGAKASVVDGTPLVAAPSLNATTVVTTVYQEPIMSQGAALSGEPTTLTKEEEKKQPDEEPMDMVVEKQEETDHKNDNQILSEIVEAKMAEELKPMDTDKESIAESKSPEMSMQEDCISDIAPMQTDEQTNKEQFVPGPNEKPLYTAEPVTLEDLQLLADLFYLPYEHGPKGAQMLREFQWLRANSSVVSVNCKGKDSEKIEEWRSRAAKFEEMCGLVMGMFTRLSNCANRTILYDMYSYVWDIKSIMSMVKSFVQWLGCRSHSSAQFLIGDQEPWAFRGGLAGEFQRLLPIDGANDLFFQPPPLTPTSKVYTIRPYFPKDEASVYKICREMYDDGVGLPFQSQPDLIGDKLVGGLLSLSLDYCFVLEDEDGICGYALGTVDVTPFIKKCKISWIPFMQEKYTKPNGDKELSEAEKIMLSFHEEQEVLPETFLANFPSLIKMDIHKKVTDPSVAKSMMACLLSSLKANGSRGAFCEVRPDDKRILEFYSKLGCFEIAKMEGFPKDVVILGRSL
Chain of Recombinant full length human OGA enzyme (O60502 whole entry): as above

Take `CC(=O)Nc1ncc(CN2C[C@H](Oc3ccnc(OC(F)F)c3)C[C@@H]2C)s1` [Example 1-20, N-(5-(((2S,4R)-4-((2-(difluoromethoxy)pyridin-4-yl)oxy)-2-methylpyrrolidin-1-yl)methyl)thiazol-2-yl)acetamide]: the IC50 (as a rule, the concentration at which inhibition is half-maximal) in series [1] was less than 1 nM; in series [2] (repeated assay, value marked with asterisk (*)), 7 nM. For the same molecule, the efflux ratio at 2 h with P-gp (MDR1) (setting [4]) was determined as 2.9; in the series with P-gp (MDR1) (MDCK-MDR1, pH 7.4, repeated assay, value marked with asterisk (*)) it was 3. For the same molecule, the “RLM % Qh (%)” value in series [3] is 63%.

For the molecule `COCCOc1cc(O[C@@H]2C[C@H](C)N(Cc3sc(NC(C)=O)nc3F)C2)ncn1` [Example 1-23, N-(4-fluoro-5-(((2S,4R)-4-((6-(2-methoxyethoxy)pyrimidin-4-yl)oxy)-2-methylpyrrolidin-1-yl)methyl)thiazol-2-yl)acetamide], the IC50 in series [1] was less than 1 nM; in series [2] (setting [5]), 3 nM. Besides, in the series with P-gp (MDR1) (setting [4]), the efflux ratio at 2 h amounted to 7.7. Moreover, in series [3], the “RLM % Qh (%)” value was determined as 31%.

Take `COc1cc(O[C@@H]2CCN(Cc3sc(NC(C)=O)nc3F)C2)ncn1` [Example 1-28, (R)—N-(4-fluoro-5-((3-((6-methoxypyrimidin-4-yl)oxy)pyrrolidin-1-yl)methyl)thiazol-2-yl)acetamide]: the IC50 came out at 16 nM in series [1] and 47 nM in series [2] (setting [5]). Also, the efflux ratio at 2 h in the series with P-gp (MDR1) (setting [4]) was 1.8. Further, the “RLM % Qh (%)” value in series [3] is 33%.

Take `COc1cc(O[C@H]2CCCN(Cc3sc(NC(C)=O)nc3F)C2)ncn1` [Example 1-32, (S)—N-(4-fluoro-5-((3-((6-methoxypyrimidin-4-yl)oxy)piperidin-1-yl)methyl)thiazol-2-yl)acetamide]: the values for the IC50 in series [1] and in series [2] (setting [5]) were 14 nM and 32 nM, respectively. Further, the efflux ratio at 2 h with P-gp (MDR1) (setting [4]) was found to be 3.1. Also, in series [3], the “RLM % Qh (%)” value worked out at 83%.

As to `COc1cc(O[C@@H]2CCCN(Cc3sc(NC(C)=O)nc3F)C2)ncn1` [Example 1-33, (R)—N-(4-fluoro-5-((3-((6-methoxypyrimidin-4-yl)oxy)piperidin-1-yl)methyl)thiazol-2-yl)acetamide], the figures for the IC50 in series [1] and in series [2] (setting [5]) were 17 nM and 51 nM, respectively. Further, in the series with P-gp (MDR1) (setting [4]), the efflux ratio at 2 h stood at 2.9. Moreover, the “RLM % Qh (%)” value in series [3] was 65%.

Turning to `COc1cc(O[C@H]2CC[C@H](C)N(Cc3sc(NC(C)=O)nc3F)C2)ncn1` [Example 1-34, N-(4-fluoro-5-(((2S,5S)-5-((6-methoxypyrimidin-4-yl)oxy)-2-methylpiperidin-1-yl)methyl)thiazol-2-yl)acetamide], the IC50 in series [1] is less than 1 nM; in series [2] (setting [5]), 2 nM. Further, in the series with P-gp (MDR1) (setting [4]), the efflux ratio at 2 h worked out at 4.1. In series [3], the “RLM % Qh (%)” value turned out to be 90%.

Turning to `COc1cc(O[C@@H]2CC[C@H](C)N(Cc3sc(NC(C)=O)nc3F)C2)ncn1` [Example 1-35, N-(4-fluoro-5-(((2S,5R)-5-((6-methoxypyrimidin-4-yl)oxy)-2-methylpiperidin-1-yl)methyl)thiazol-2-yl)acetamide], the IC50 is less than 1 nM in series [1] and 2 nM in series [2] (setting [5]). Besides, the efflux ratio at 2 h in the series with P-gp (MDR1) (setting [4]) came to 4.3. Also, in series [3], the “RLM % Qh (%)” value is given as 92%.

For the molecule `COc1cc(O[C@@H]2C[C@@H](C)N(Cc3cnc(NC(C)=O)s3)C2)ncn1` [Example 1-38, N-(5-(((2R,4R)-4-((6-methoxypyrimidin-4-yl)oxy)-2-methylpyrrolidin-1-yl)methyl)thiazol-2-yl)acetamide], the IC50 was 250 nM in series [1] and greater than 1000 nM in series [2] (setting [5]). Moreover, the efflux ratio at 2 h in the series with P-gp (MDR1) (setting [4]) stood at 3.9. Further, the “RLM % Qh (%)” value in series [3] is recorded as 32%.

Take `COc1cc(O[C@H]2C[C@H](C)N(Cc3cnc(NC(C)=O)s3)C2)ncn1` [Example 1-39, N-(5-(((2S,4S)-4-((6-methoxypyrimidin-4-yl)oxy)-2-methylpyrrolidin-1-yl)methyl)thiazol-2-yl)acetamide]: the figures for the IC50 in series [1] and in series [2] (setting [5]) were 55 nM and 30 nM, respectively. Moreover, the efflux ratio at 2 h with P-gp (MDR1) (setting [4]) is 4.5. Further, in series [3], the “RLM % Qh (%)” value was found to be 57%.

`COc1cc(O[C@H]2C[C@@H](C)N(Cc3cnc(NC(C)=O)s3)C2)ncn1` [Example 1-40, N-(5-(((2R,4S)-4-((6-methoxypyrimidin-4-yl)oxy)-2-methylpyrrolidin-1-yl)methyl)thiazol-2-yl)acetamide]: the IC50 in series [1] is 720 nM; in series [2] (setting [5]) it was greater than 1000 nM. Besides, the efflux ratio at 2 h with P-gp (MDR1) (setting [4]) stood at 5.3. The “RLM % Qh (%)” value in series [3] came to 20%.

In the case of `COc1cc(O[C@H]2CCCN(Cc3cnc(NC(C)=O)s3)C2)ncn1` [Example 1-41, (S)—N-(5-((3-((6-methoxypyrimidin-4-yl)oxy)piperidin-1-yl)methyl)thiazol-2-yl)acetamide], the values for the IC50 in series [1] and in series [2] (setting [5]) were 24 nM and 29 nM, respectively. In addition, in the series on P-gp (MDR1) (setting [4]), the efflux ratio at 2 h turned out to be 4.3. In addition, the “RLM % Qh (%)” value in series [3] was found to be 80%.

Regarding `COc1cc(O[C@@H]2CCCN(Cc3cnc(NC(C)=O)s3)C2)ncn1` [Example 1-42, (R)—N-(5-((3-((6-methoxypyrimidin-4-yl)oxy)piperidin-1-yl)methyl)thiazol-2-yl)acetamide], the IC50 in series [1] stood at 39 nM; in series [2] (setting [5]), 81 nM. The efflux ratio at 2 h in the series on P-gp (MDR1) (setting [4]) worked out at 3.9. For the same molecule, in series [3], the “RLM % Qh (%)” value worked out at 61%.

With `COc1cc(O[C@H]2CC[C@H](C)N(Cc3cnc(NC(C)=O)s3)C2)ncn1` [Example 1-43, N-(5-(((2S,5S)-5-((6-methoxypyrimidin-4-yl)oxy)-2-methylpiperidin-1-yl)methyl)thiazol-2-yl)acetamide], the IC50 in series [1] is less than 1 nM; in series [2] (setting [5]), 1 nM. Also, in the series on P-gp (MDR1) (setting [4]), the efflux ratio at 2 h is 6.9. For the same molecule, the “RLM % Qh (%)” value in series [3] is on record as 81%.

With `COc1cc(O[C@@H]2CC[C@H](C)N(Cc3cnc(NC(C)=O)s3)C2)ncn1` [Example 1-44, N-(5-(((2S,5R)-5-((6-methoxypyrimidin-4-yl)oxy)-2-methylpiperidin-1-yl)methyl)thiazol-2-yl)acetamide], the IC50 was less than 1 nM in series [1] and 2 nM in series [2] (setting [5]). The efflux ratio at 2 h in the series on P-gp (MDR1) (setting [4]) worked out at 9.3. Moreover, the “RLM % Qh (%)” value in series [3] is 88%.

Take `CCC(=O)Nc1nc(F)c(CN2CC[C@@H](Oc3cc(OC)ncn3)C2)s1` [Example 1-45, (R)—N-(4-fluoro-5-((3-((6-methoxypyrimidin-4-yl)oxy)pyrrolidin-1-yl)methyl)thiazol-2-yl)propionamide]: the IC50 in series [1] is 47 nM; in series [2] (setting [5]), 966 nM. For the same molecule, the efflux ratio at 2 h in the series on P-gp (MDR1) (setting [4]) worked out at 1.7. Also, the “RLM % Qh (%)” value in series [3] was 61%.

Turning to `COc1cc(O[C@@H]2C[C@H](C)N(Cc3sc(NC(C)=O)nc3Cl)C2)ncn1` [Example 1-46, N-(4-chloro-5-(((2S,4R)-4-((6-methoxypyrimidin-4-yl)oxy)-2-methylpyrrolidin-1-yl)methyl)thiazol-2-yl)acetamide], the IC50 came to 1 nM in series [1] and 38 nM in series [2] (setting [5]). The efflux ratio at 2 h in the series with P-gp (MDR1) (setting [4]) was 3.2. Besides, in series [3], the “RLM % Qh (%)” value was 55%.

Turning to `CC(=O)Nc1nc(F)c(CN2C[C@H](Oc3ccc(F)cn3)C[C@@H]2C)s1` [Example 1-47, N-(4-fluoro-5-(((2S,4R)-4-((5-fluoropyridin-2-yl)oxy)-2-methylpyrrolidin-1-yl)methyl)thiazol-2-yl)acetamide], the figures for the IC50 in series [1] and in series [2] (setting [5]) were less than 1 nM and 1 nM, respectively. Moreover, the efflux ratio at 2 h with P-gp (MDR1) (setting [4]) was 1.5. Moreover, in series [3], the “RLM % Qh (%)” value was determined as 76%.

On to `CC(=O)Nc1nc(F)c(CN2CC[C@H](Oc3cc(C)nc(C)c3)C2)s1` [Example 1-48, (S)—N-(5-((3-((2,6-dimethylpyridin-4-yl)oxy)pyrrolidin-1-yl)methyl)-4-fluorothiazol-2-yl)acetamide], for which the results for the IC50 in series [1] and in series [2] (setting [5]) were 150 nM and 821 nM, respectively. For the same molecule, in the series on P-gp (MDR1) (setting [4]), the efflux ratio at 2 h came out at 24.1. Also, the “RLM % Qh (%)” value in series [3] is listed as 57%.

For the molecule `CC(=O)Nc1nc(F)c(CN2CC[C@@H](Oc3cc(C)nc(C)c3)C2)s1` [Example 1-49, (R)—N-(5-((3-((2,6-dimethylpyridin-4-yl)oxy)pyrrolidin-1-yl)methyl)-4-fluorothiazol-2-yl)acetamide], the IC50 was less than 1 nM in series [1] and 10 nM in series [2] (setting [5]). The efflux ratio at 2 h in the series on P-gp (MDR1) (setting [4]) turned out to be 18.9. The “RLM % Qh (%)” value in series [3] is given as 34%.

(Values after patent US20240308995A1, “O-GLYCOPROTEIN-2-ACETAMIDO-2-DEOXY-3-D-GLUCOPYRANOSIDASE INHIBITORS” (BIOGEN MA INC., priority 2018, published 2024).)
